Test results reported in ChEMBL document CHEMBL1141209, “Carbonic anhydrase inhibitors: inhibition of the human isozymes I, II, VA, and IX with a library of substituted difluoromethanesulfonamides” (Bioorg Med Chem Lett, 2005).

These compounds were tested against Carbonic anhydrase 2 (Homo sapiens, UniProt P00918).
Description: Inhibition of recombinant human cytosolic isozyme CA II

Row | Ki | SMILES
1 | 670 nM | C[C@]12CC[C@@H]3c4ccc(C(F)(F)S(N)(=O)=O)cc4CC[C@H]3[C@@H]1CCC2=O
2 | 80 nM | C[C@]12CC[C@@H]3c4ccc(CS(N)(=O)=O)cc4CC[C@H]3[C@@H]1CCC2=O

Row | SMILES | Ki
3 | Cc1cc(=O)oc2cc(OS(N)(=O)=O)ccc12 | 25 nM

What follows are compounds tested against Carbonic anhydrase 1 (Homo sapiens, UniProt P00915).
Chain of Carbonic anhydrase 1 (P00915 whole entry): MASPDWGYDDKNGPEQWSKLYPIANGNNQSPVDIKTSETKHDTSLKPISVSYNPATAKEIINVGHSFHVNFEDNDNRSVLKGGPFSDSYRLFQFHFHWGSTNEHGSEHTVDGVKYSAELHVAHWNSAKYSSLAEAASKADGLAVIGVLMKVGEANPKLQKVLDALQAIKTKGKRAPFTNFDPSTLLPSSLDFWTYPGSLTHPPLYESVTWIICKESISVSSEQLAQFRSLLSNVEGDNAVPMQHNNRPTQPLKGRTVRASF
Description: Inhibition of recombinant human cytosolic isozyme CA I

Row | Ki | SMILES
4 | 96 nM | C[C@]12CC[C@@H]3c4ccc(C(F)(F)S(N)(=O)=O)cc4CC[C@H]3[C@@H]1CCC2=O
5 | 116 nM | C[C@]12CC[C@@H]3c4ccc(CS(N)(=O)=O)cc4CC[C@H]3[C@@H]1CCC2=O

The compounds below were run against Carbonic anhydrase 5A, mitochondrial (Homo sapiens, UniProt P35218).
Chain of Carbonic anhydrase 5A, mitochondrial (P35218 whole entry): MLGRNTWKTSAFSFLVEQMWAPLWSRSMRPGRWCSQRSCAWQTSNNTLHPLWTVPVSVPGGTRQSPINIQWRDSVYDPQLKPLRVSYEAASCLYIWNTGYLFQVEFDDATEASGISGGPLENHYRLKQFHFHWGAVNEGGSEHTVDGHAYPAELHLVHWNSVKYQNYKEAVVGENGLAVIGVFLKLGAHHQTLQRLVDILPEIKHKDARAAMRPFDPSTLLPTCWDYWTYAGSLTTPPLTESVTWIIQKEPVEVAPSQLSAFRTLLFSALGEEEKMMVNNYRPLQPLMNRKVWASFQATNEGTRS
Description: Inhibition of recombinant human mitochondrial isozyme CA VA

Row | Ki | SMILES
6 | 129 nM | C[C@]12CC[C@@H]3c4ccc(C(F)(F)S(N)(=O)=O)cc4CC[C@H]3[C@@H]1CCC2=O
7 | 1460 nM | C[C@]12CC[C@@H]3c4ccc(CS(N)(=O)=O)cc4CC[C@H]3[C@@H]1CCC2=O

Each compound was assayed against Carbonic anhydrase 9 (Homo sapiens, UniProt Q16790).
Description: Inhibition of cloned human transmembrane, tumor-associated isozyme CA IX

Row | SMILES | Ki
8 | C[C@]12CC[C@@H]3c4ccc(C(F)(F)S(N)(=O)=O)cc4CC[C@H]3[C@@H]1CCC2=O | 1730 nM
9 | C[C@]12CC[C@@H]3c4ccc(CS(N)(=O)=O)cc4CC[C@H]3[C@@H]1CCC2=O | 208 nM
10 | Cc1cc(=O)oc2cc(C(F)(F)S(N)(=O)=O)ccc12 | 195 nM
11 | Cc1cc(=O)oc2cc(CS(N)(=O)=O)ccc12 | 240 nM
12 | Cc1ccc(C(F)(F)S(N)(=O)=O)cc1 | 250 nM
13 | NS(=O)(=O)C(F)(F)c1ccc([N+](=O)[O-])cc1 | 2420 nM
14 | NS(=O)(=O)Cc1ccccc1 [PHENYLMETHANESULFONAMIDE] | 9300 nM

Results, then the compound that gave them:

Row | Ki | SMILES
15 | 9280 nM | NS(=O)(=O)C(F)(F)c1ccccc1Br
16 | 1490 nM | NS(=O)(=O)C(F)(F)c1cccc(Br)c1
17 | 7730 nM | NS(=O)(=O)C(F)(F)c1ccc(Br)cc1
18 | 8500 nM | NS(=O)(=O)C(F)(F)c1ccccc1 [PHENYLDIFLUOROMETHANESULFONAMIDE]
